# Measured values reported in patent US20230000813A1, “COMPOUND FOR THE TREATMENT OF BOVINE OR SWINE RESPIRATORY DISEASE” (Intervet Inc., priority 2016, published 2023).
# “And” between values parts separate entries of the source, which are not always exact repeats. Equal values may be shown once. Marks after values point to notes of the source that are not given here.
# Key:
# [1] = Plasma and tissue concentrations in infected calves (Example 10); type: in vivo, cattle calves; conditions: individual animals and mean; for Concentration, Plasma 0 h: predose
# [2] = Plasma and tissue concentrations and pharmacokinetics in infected calves (Example 8); type: in vivo, Holstein black pied cattle calves
# Procedure: Three animals each were treated one hour after infection by subcutaneous (SC) administration of Compound 329 in an aqueous 30% (w/v) Captisol® solution for injection at a dose of 10 mg/kg BW.
# Food consumption was measured. Single individual blood samples were collected from the 12 animals at the following time points: D-1 (predose), 30 minutes, 2, 4, 6, 24 h and at D2 (ca. 45 h) after administration. After the day 2 blood sampling, the infected cattle were slaughtered. The lungs were weighted. Lung states and lung scores were observed morphologically.
# At necropsy from animals treated with test items or the positive control, samples of epithelial lining fluid (ELF), lung tissue, and additionally tissue of liver and kidney were collected. From each lung two bacteriological swaps were taken from the left and right bronchus.
# Epithelial lining fluid was collected by inserting sterile paper strips caudally behind the tracheal bifurcation directly onto the bronchial mucous membrane in the left and right bronchus and allowed to moisten with bronchial fluid. The paper strip was left in place (resting on the bronchial mucosa) for approximately 1 minute before being placed back into the plastic container.
# From each lung two tissue samples were collected by clipping from at least two locations, one from morphologically unchanged tissue, one from the edge of pathomorphologically changed areas.
# Plasma, ELF, lung tissue and additional tissue samples were analyzed for concentrations of Compound 329 and Enrofloxacin/Ciprofloxacin respectively using a HPLC-MS/MS method.
# An analysis of the measured plasma concentrations of C.
# [3] = tested on: 15 isolates of H. parasuis; assay: MIC50/MIC90, agar-dilution method (GC agar base); type: cell-based; conditions: Haemophilus parasuis
# Procedure: The in vitro activity of 3 representative compounds of this invention against 15 isolates of H. parasuis was determined. All strains were isolated from the respiratory tract of swine in different European countries The MICs for all isolates were determined by using the agar-dilution method according to CLSI document VET01-A4 [1]with the following modification: GC agar base was used instead of Mueller-Hinton agar base for the preparation of the agar-dilution plates. Results were interpreted according to the CLSI document VET01-S3.
# [4] = tested on: Mannheimia haemolytica MH 13093 (XB0472-6014.1, BRD field isolate); assay: MIC, broth-microdilution (CLSI VET01-A4); type: cell-based
# In short: (§1)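 MIC read by eye as lowest compound concentration without visible growth (no turbidity), interpreted per CLSI VET01-S3. Doubling-dilution broth-microdilution trays, run according to CLSI VET01-A4.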
# [5] = tested on: Mannheimia haemolytica MH 13065 (XB0446-6003.9, BRD field isolate); assay: MIC, broth-microdilution (CLSI VET01-A4); type: cell-based
# In short: as §1
# M. haemolytica = assay: Mannheimia haemolytica cattle lung infection model, efficacy (Example 10); type: in vivo, cattle calves; conditions: for Food consumption, cumulated for all animals in the group: 3 calves; for Bacteriological Cure (x of n) / Survival (x of n): calves infected with M. haemolytica, SC, single
# Procedure: Unless otherwise described the study was conducted as described in Clinical Example 8
# Calves were infected via intratracheal instillation of appr. 300 mL of M. haemolytica PBS suspension containing approximately 4×10^9 CFU M. haemolytica in late log phase on Day 0.
# One hour later three animals each were treated with 10 mg/kg of Compound 231(referred to as C. 231) (80 mg/mL in 10% Poloxamer 188), or 10 mg/kg or 5 mg/kg Compound 329 (referred to as C. 329) (150 mg/mL in 35% Cavitron).
# The following clinical findings were recorded: The general behavior scores of the animals before (DO am) and after infection with M. haemolytica in the different treated and control groups are indicated in FIG. 8-1: 0=normal; 1=slightly depressive, 2=moderately depressive, 3=highly depressive, 4=recumbency.
# The following pathomorphological findings after section on Day 2 were recorded: After measuring the body weight and the lung weight the Lung body mass ratio was calculated as shown in FIG. 8-2. A healthy animal has a lung body mass ration around 1.7 or lower. The area percentage of lung consolidations compared to the total lung tissue and the lung score determined that is a combined score of such percentage of lung consoldiations and the grade. For the “grade” the degree of lung consolidation score was graded from 0 to 3 for each of eight lung lobes: 0 no visible changes, 1 low graded colour changes or induration, 2 medium graded induration, 3 high graded induration, hepatisation, necrosis.
# The geometrical means (CFU/g tissue) of bacteriological re-isolations of Mannheimia haemolytica from lung tissue are illustrated in FIG. 8-4.
# [6] = SC single 5 mg/kg (35% Cavitron), listed as C. 239, 5 mg/kg
# [7] = SC single 10 mg/kg (C 231 in 10% Poloxamer 188; C 329 in 35% Cavitron), 10 mg/kg
# [8] = SC single 10 mg/kg in 30% Captisol, individual animals and mean, 10 mg/kg
# [9] = plasma, SC 10 mg/kg, mean, Phoenix WinNonlin
structure (smiles),measurement,setting,value
CC(C)(N)C(NC(=O)c1ccc(C#Cc2ccc(CNC3CC3)cc2)cc1)C(=O)NO (stereo not shown) [C. 329],"Concentration, Plasma 0.5 h",[1]; [6],1140 ng/mL and 830 ng/mL and 945 ng/mL
same,"Concentration, Plasma 2 h",[1]; [6],327 ng/mL and 326 ng/mL and 221 ng/mL
same,"Concentration, Plasma 4 h",[1]; [6],146 ng/mL and 210 ng/mL and 130 ng/mL
same,"Concentration, Plasma 6 h",[1]; [6],110 ng/mL and 156 ng/mL and 78.7 ng/mL
same,"Concentration, Plasma 24 h",[1]; [6],32.2 ng/mL and 35.1 ng/mL and 22.8 ng/mL
same,"Concentration, Plasma 48 h",[1]; [6],16.1 ng/mL and 18.2 ng/mL and 12.8 ng/mL
same,"Concentration, Tissue (48 h) ELF",[1]; [6],91.8 ng/mL and 214 ng/mL and 324 ng/mL
same,"Concentration, Tissue (48 h) Kidney",[1]; [6],8890 ng/mL and 3990 ng/mL and 4940 ng/mL
same,"Concentration, Tissue (48 h) Liver",[1]; [6],2060 ng/mL and 1550 ng/mL and 1740 ng/mL
same,"Concentration, Tissue (48 h) Lung",[1]; [6],1560 ng/mL and 1320 ng/mL and 1360 ng/mL
same,"Concentration, Tissue (48 h) Muscle",[1]; [6],53.3 ng/mL and 45.7 ng/mL and 54.4 ng/mL
same,"Concentration, Plasma 0.5 h",[1]; [7],1160 ng/mL and 1610 ng/mL and 1400 ng/mL
same,"Concentration, Plasma 2 h",[1]; [7],476 ng/mL and 439 ng/mL and 550 ng/mL
same,"Concentration, Plasma 4 h",[1]; [7],310 ng/mL and 267 ng/mL and 282 ng/mL
same,"Concentration, Plasma 6 h",[1]; [7],210 ng/mL and 172 ng/mL and 174 ng/mL
same,"Concentration, Plasma 24 h",[1]; [7],69.1 ng/mL and 42.9 ng/mL and 57.5 ng/mL
same,"Concentration, Plasma 48 h",[1]; [7],49.3 ng/mL and 38.5 ng/mL and 32.4 ng/mL
same,"Concentration, Tissue (48 h) ELF",[1]; [7],1090 ng/mL and 372 ng/mL and 250 ng/mL
same,"Concentration, Tissue (48 h) Kidney",[1]; [7],6570 ng/mL and 20800 ng/mL and 4620 ng/mL
same,"Concentration, Tissue (48 h) Liver",[1]; [7],3930 ng/mL and 3650 ng/mL and 2730 ng/mL
same,"Concentration, Tissue (48 h) Lung",[1]; [7],2780 ng/mL and 3370 ng/mL and 2790 ng/mL
same,"Concentration, Tissue (48 h) Muscle",[1]; [7],75.3 ng/mL and 68.5 ng/mL and 85.9 ng/mL
same,"Concentration, Plasma 0 h",[1]; SC single 5 mg/kg (35% Cavitron),BLQ
same,"Concentration, Plasma 0 h",[1]; SC single 10 mg/kg (C 231 in 10% Poloxamer 188; C 329 in 35% Cavitron),BLQ
same,compound concentrations in the tissue samples,"[2]; SC 10 mg/kg, compared with plasma, in words",above the plasma concentration
same,detection in plasma and section tissue samples,"[2]; SC 10 mg/kg, in words",detected at high concentrations
same,"Concentration, Plasma 0.5 h",[2]; [8],2340 ng/mL and 1520 ng/mL and 1280 ng/mL
same,"Concentration, Plasma 2 h",[2]; [8],1930 ng/mL and 1410 ng/mL and 2330 ng/mL
same,"Concentration, Plasma 4 h",[2]; [8],1200 ng/mL and 856 ng/mL and 1310 ng/mL
same,"Concentration, Plasma 6 h",[2]; [8],692 ng/mL and 928 ng/mL and 718 ng/mL
same,"Concentration, Plasma 24 h",[2]; [8],146 ng/mL and 187 ng/mL and 176 ng/mL
same,"Concentration, Plasma 48 h",[2]; [8],60.5 ng/mL and 57.4 ng/mL and 85.2 ng/mL
same,"Concentration, Tissue (48 h) Kidney",[2]; [8],22800 ng/mL and 25500 ng/mL and 17100 ng/mL
same,"Concentration, Tissue (48 h) Liver",[2]; [8],7760 ng/mL and 7850 ng/mL and 5130 ng/mL
same,"Concentration, Tissue (48 h) Lung",[2]; [8],8290 ng/mL and 9410 ng/mL and 7570 ng/mL
same,"Concentration, Tissue (48 h) ELF","[2]; epithelial lining fluid, SC single 10 mg/kg in 30% Captisol, individual animals and mean, 10 mg/kg",320 ng/mL and 356 ng/mL and 1370 ng/mL
same,AUClast,[2]; [9],19434 ng·h/mL
same,Cmax,[2]; [9],2063 ng/mL
same,HL_Lambda_z (Half life time),[2]; [9],11.1 h
same,MRTlast (Mean retention time till last measured value),[2]; [9],9.7 h
same,Tmax,[2]; [9],1.0 h
same,Vz_F_obs,[2]; [9],7.8 L/kg
same,MIC50,[3],2 µg/mL
same,MIC90,[3],4 µg/mL
same,MIC,[4],1.6 µM
same,MIC,[5],0.8 µM
same,"Food consumption, cumulated for all animals in the group","M. haemolytica; D 0 am, after infection and treatment, 5 mg/kg",1213 g
same,"Food consumption, cumulated for all animals in the group","M. haemolytica; D 0 am, after infection and treatment, 10 mg/kg",1800** g
same,"Food consumption, cumulated for all animals in the group","M. haemolytica; D 0 pm, 5 mg/kg",4800 g
same,"Food consumption, cumulated for all animals in the group","M. haemolytica; D 0 pm, 10 mg/kg",4800 g
same,"Food consumption, cumulated for all animals in the group","M. haemolytica; D +1 am, 5 mg/kg",4800 g
same,"Food consumption, cumulated for all animals in the group","M. haemolytica; D +1 am, 10 mg/kg",4800 g
same,"Food consumption, cumulated for all animals in the group","M. haemolytica; D +1 pm, 5 mg/kg",4800 g
same,"Food consumption, cumulated for all animals in the group","M. haemolytica; D +1 pm, 10 mg/kg",4800 g
same,"Food consumption, cumulated for all animals in the group","M. haemolytica; D −1 (before infection), 5 mg/kg",4800 g
same,"Food consumption, cumulated for all animals in the group","M. haemolytica; D −1 (before infection), 10 mg/kg",4800 g
same,Bacteriological Cure (x of n),M. haemolytica; 5 mg/kg BW,1/3
same,Survival (x of n),M. haemolytica; 5 mg/kg BW,3/3
same,Bacteriological Cure (x of n),M. haemolytica; 10 mg/kg BW,3/3
same,Survival (x of n),M. haemolytica; 10 mg/kg BW,3/3
same,efficacy against an artificial lung infection with M. haemolytica in the calf,"M. haemolytica; tested dosages 10 mg/kg for C 231 and 10 mg/kg and 5 mg/kg for C 329, conclusion in words",effective
